Measured values: paper PMC12549899 (Nature Communications, 2025)

Molecular target: T1, DrOTOP1 G130W/E384A (Danio rerio, UniProt Q7ZWK8, E384A/G130W)
T1 construct: A previously generated codon-optimized full-length DrOTOP1[8]; (UniProt: Q7ZWK8) construct; expressed in transfected cells; host or cells: HEK-293 (CRL-1573, ATCC)
T1 sequence (Q7ZWK8 1-586 G130W/E384A): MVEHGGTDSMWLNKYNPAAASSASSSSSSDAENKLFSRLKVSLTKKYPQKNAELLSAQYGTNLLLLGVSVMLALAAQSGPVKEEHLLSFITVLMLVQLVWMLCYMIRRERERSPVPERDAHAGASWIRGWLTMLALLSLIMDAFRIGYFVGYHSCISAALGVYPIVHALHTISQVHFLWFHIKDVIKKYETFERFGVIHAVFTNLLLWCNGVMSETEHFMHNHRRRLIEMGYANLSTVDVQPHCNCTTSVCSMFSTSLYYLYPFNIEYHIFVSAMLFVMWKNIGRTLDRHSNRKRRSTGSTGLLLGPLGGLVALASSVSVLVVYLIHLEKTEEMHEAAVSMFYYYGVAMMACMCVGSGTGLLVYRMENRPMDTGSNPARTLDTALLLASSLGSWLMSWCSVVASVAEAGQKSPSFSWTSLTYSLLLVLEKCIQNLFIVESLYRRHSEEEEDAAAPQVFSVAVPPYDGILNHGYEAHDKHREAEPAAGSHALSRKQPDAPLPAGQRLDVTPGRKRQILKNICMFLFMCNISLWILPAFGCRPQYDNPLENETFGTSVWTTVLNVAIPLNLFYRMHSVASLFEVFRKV
Assay: Whole-cell patch-clamp, inhibition of acid-evoked currents, DrOTOP1 G130W/E384A
Assay type: cell-based, zebrafish (Danio rerio)
Procedure: Given our limited success in identifying mutations of the central site that disrupt antagonism by C2.2, we tested whether mutations of the central site in a background of G130W (the most impactful outer site mutation) might unmask contributions of this site. Thus, we generated and tested double mutants of G130W with E384A, A274W, and A388W. […] We also measured the dose-dependence of inhibition by C2.2 for both G130W/A388W and G130W/E384A (Fig. 5I, J). […] G130W was tested in parallel to confirm that 100 and 300 μM C2.2 produced dose-dependent inhibition.
HEK-293 cells (CRL-1573, ATCC) were cultured in DMEM (Thermofisher 11995073) containing 10% fetal bovine serum (Life Technology 16000044) and Penicillin-Streptomycin (100 I.U./mL) and (100 µg/mL), respectively. Cells were transfected with WT DrOTOP1 or mutant DrOTOP1 channels in 35 mm petri dishes, with ~ 500 ng DNA and 2 μL TransIT-LT1 transfection reagent (Mirus Bio Corporation, Cat # MIR2300) following the manufacturer’s protocol. All constructs were subcloned into a pcDNA3.1 vector that adds an N-terminal fusion tag consisting of an octahistidine tag followed by eGFP, a Gly-Thr-Gly-Thr linker and a 3C protease cleavage site ([…]) followed by WT DrOTOP1, WT mOTOP1, WT hOTOP1, or mutated DrOTOP1. Point mutations were generated via In-Fusion Cloning (Takara) using single-stranded DNA primers generated through IDT and sequence confirmed by Sanger sequencing (GeneWiz).
Whole-cell patch-clamp recording was performed as previously described[6],[22],[25]. Recordings were made with an Axopatch 200B amplifier, digitized with a Digidata 1322a 16-bit data acquisition system, acquired with pClamp 8.2 and analyzed with Clampfit 10 (Molecular Devices). Recordings were sampled at 5 kHz and filtered at 1 kHz. Patch Pipettes with resistance of […] were fabricated from borosilicate glass, and only recordings with a giga-Ohm seal were used in analysis. Membrane potential was held at −80 mV for the duration of recordings. At the beginning of recordings and between, cells were washed with Tyrode’s solution (see below). Once a giga-Ohm seal was reached, cells were lifted and placed in front of microcapillary tubes controlled by a Fast-Step perfusion system (Warner Instruments) so that extracellular solutions could be rapidly exchanged during each experiment.
Standard Tyrode’s solution consisted of 145 mM NaCl, 5 mM KCl, MgCl2, 2 mM CaCl2, 20 mM D-Glucose, and 10 mM HEPES (for pH 7.4). All other extracellular patch-clamp solutions contained 160 mM NMDG-Cl, 2 mM CaCl2, and the following buffers: 10 mM HEPES (for pH 7.4), 10 mM MES (for pH 6.5-5.5), 10 mM CHES for pH 10, and 10 mM HomoPIPES for (pH 5.0). pH adjusted with HCl. […]
All data are presented as mean ± SEM unless otherwise noted, and each data point represents an independent replicant. Inhibition of compounds was quantified as ((I2peak-I1)/(I2peak))*100, where I1 is the current immediately before wash-off and I2peak is the maximum recovered current (Supplementary Fig. 2). Hill coefficients were determined by the following equation: Y = Bmax*X^h/(Kd^h + X^h). Absolute IC50 was determined by the following equation: Fifty = (Top + Baseline)/2 Y = Bottom + (Top-Bottom)/(1 + ((Top-Bottom)/(Fifty-Bottom) − 1)*(AbsoluteIC50/X)^HillSlope). pH50 curves (Fig. 6G inset) were determined using the following equation: Y = Bottom + (Top-Bottom)/(1 + (EC/X)^HillSlope) where EC = EC50 control. […]

`C=C(C)COc1ccccc1NC(=O)c1nc[nH]c1C` [C2.2] was tested, and the inhibition at 10 µM (10 µM, DrOTOP1 G130W/E384A, single cells or mean) was 3.23%, the inhibition at 300 µM (DrOTOP1 G130W/E384A, saturated by 100 µM, no further inhibition at 300 µM, read-out: Maximal inhibition (saturation)) was about 50% and the HillSlope (G130W/E384A, best-fit value) was 2.538. For the same compound, the LogAbsoluteIC50 (G130W/E384A, best-fit value) was 1.644 and the IC50 (G130W/E384A, best-fit value, Top fitted, Bottom = 0, read-out: AbsoluteIC50) was 44.1 µM.
